{"source": "ChEMBL document CHEMBL5346921", "about": "“Discovery of novel benzamide derivatives bearing benzamidophenyl and phenylacetamidophenyl scaffolds as potential antitumor agents via targeting PARP-1” (Eur J Med Chem, 2023)", "key": {"[1]": {"tested_on": "HCT-116", "assay": "Induction of mitochondrial membrane potential loss in human HCT-116 cells assessed as JC-1 aggregate level by measuring red fluorescence intensity at 0.3 uM incubated for 48 hrs by JC-1 staining based flow cytometry (reference value: 96.72%)", "type": "functional"}, "[2]": {"tested_on": "HCT-116", "assay": "Induction of DNA double strand breaks in human HCT-116 cells assessed as gammaH2AX accumulation at 3 uM incubated for 48 hrs by immunofluorescence analysis", "type": "functional, cell-based"}, "[3]": {"tested_on": "HCT-116", "assay": "Induction of cell cycle arrest in human HCT-116 cells assessed as accumulation of cells at S phase at 0.3 uM incubated for 72 hrs by PI staining based flow cytometry (reference value: 16.7%)", "type": "functional"}, "[4]": {"tested_on": "HCT-116", "assay": "Inhibition of cell migration in human HCT-116 cells at 1 uM incubated for 48 hrs by wound healing assay", "type": "functional"}, "[5]": {"tested_on": "HCT-116", "assay": "Inhibition of cell migration in human HCT-116 cells at 1 uM incubated for 24 hrs by wound healing assay", "type": "functional"}, "[6]": {"tested_on": "HCT-116", "assay": "Induction of apoptosis in human HCT-116 cells assessed as necrotic cells at 7.5 uM incubated for 48 hrs by AnnexinV-FITC/PI staining based flow cytometry (reference value: 0%)", "type": "functional"}, "[7]": {"tested_on": "HCT-116", "assay": "Induction of mitochondrial membrane potential loss in human HCT-116 cells assessed as JC-1 monomer level by measuring green fluorescence intensity at 0.3 uM incubated for 48 hrs by JC-1 staining based flow cytometry (reference value: 3.28%)", "type": "functional"}, "[8]": {"tested_on": "HCT-116", "assay": "Induction of apoptosis in human HCT-116 cells assessed as viable cells at 1.5 uM incubated for 48 hrs by AnnexinV-FITC/PI staining based flow cytometry (reference value: 97.89%)", "type": "functional", "settings": "read-out: Activity"}, "[9]": {"tested_on": "HCT-116", "assay": "Induction of cell cycle arrest in human HCT-116 cells assessed as accumulation of cells at S phase at 1.5 uM incubated for 48 hrs by PI staining based flow cytometry (reference value: 14.5%)", "type": "functional"}, "[10]": {"tested_on": "HCT-116", "assay": "Induction of mitochondrial membrane potential loss in human HCT-116 cells assessed as JC-1 monomer level by measuring green fluorescence intensity at 3 uM incubated for 48 hrs by JC-1 staining based flow cytometry (reference value: 3.28%)", "type": "functional"}, "[11]": {"tested_on": "HCT-116", "assay": "Induction of apoptosis in human HCT-116 cells assessed as necrotic cells at 1.5 uM incubated for 72 hrs by AnnexinV-FITC/PI staining based analysis (reference value: 0%)", "type": "functional"}, "[12]": {"target": "Poly [ADP-ribose] polymerase 1 (Homo sapiens, UniProt P09874)", "sequence (P09874 whole entry)": "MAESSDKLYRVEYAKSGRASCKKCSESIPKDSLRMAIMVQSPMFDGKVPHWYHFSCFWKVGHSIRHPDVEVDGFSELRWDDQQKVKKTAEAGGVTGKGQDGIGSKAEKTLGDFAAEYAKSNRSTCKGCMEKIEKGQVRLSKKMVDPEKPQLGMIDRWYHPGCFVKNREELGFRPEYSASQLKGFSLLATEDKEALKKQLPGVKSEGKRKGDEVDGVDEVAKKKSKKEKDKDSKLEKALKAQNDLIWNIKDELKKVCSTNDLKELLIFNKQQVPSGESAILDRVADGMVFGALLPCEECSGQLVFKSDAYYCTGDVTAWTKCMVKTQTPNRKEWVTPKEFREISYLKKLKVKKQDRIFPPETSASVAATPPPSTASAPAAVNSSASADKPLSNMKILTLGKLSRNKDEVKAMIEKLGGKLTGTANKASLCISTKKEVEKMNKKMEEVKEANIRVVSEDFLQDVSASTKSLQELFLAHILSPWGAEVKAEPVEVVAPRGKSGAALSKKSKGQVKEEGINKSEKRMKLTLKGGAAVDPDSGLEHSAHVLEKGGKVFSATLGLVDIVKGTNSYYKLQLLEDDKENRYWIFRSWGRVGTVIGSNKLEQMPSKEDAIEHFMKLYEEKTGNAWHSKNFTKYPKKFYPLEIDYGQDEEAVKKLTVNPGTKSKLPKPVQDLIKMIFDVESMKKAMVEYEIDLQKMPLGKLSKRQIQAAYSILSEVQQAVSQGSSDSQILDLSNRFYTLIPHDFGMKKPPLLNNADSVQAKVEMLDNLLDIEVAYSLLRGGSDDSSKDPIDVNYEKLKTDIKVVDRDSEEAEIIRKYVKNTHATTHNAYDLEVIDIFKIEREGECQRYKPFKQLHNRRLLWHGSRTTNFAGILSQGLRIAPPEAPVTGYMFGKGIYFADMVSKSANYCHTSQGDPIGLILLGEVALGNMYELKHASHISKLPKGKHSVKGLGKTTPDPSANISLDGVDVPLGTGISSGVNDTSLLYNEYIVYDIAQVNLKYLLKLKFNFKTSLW", "assay": "Inhibition of human PARP-1 by ELISA"}, "[13]": {"assay": "Selectivity index, ratio of IC50 for cytotoxicity against human NCM460 cells to IC50 for antiproliferative activity against human HCT-116 cells", "type": "toxicity, cell-based", "settings": "NCM460 cells and HCT-116 cells, read-out: Ratio IC50"}, "[14]": {"tested_on": "HCT-116", "assay": "Inhibition of cell migration in human HCT-116 cells at 3 uM incubated for 24 hrs by wound healing assay", "type": "functional"}, "[15]": {"target": "Poly [ADP-ribose] polymerase 2 (Homo sapiens, UniProt Q9UGN5)", "sequence (Q9UGN5 whole entry)": "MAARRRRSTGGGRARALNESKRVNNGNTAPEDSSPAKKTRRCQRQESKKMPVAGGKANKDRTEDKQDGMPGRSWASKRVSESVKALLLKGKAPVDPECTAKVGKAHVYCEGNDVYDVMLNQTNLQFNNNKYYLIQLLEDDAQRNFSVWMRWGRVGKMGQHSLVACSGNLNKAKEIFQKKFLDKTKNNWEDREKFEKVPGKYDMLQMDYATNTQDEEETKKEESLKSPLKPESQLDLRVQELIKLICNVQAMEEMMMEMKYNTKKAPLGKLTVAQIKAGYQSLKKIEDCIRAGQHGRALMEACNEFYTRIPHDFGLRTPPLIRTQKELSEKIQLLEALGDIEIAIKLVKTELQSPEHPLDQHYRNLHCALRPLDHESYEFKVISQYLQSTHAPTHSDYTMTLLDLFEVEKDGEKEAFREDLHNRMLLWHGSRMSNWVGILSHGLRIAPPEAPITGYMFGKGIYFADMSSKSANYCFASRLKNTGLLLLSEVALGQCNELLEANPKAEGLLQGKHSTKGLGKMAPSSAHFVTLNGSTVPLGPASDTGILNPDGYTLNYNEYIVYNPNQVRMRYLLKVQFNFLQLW", "assay": "Inhibition of human PARP-2 by ELISA"}, "[16]": {"tested_on": "HCT-116", "assay": "Induction of mitochondrial membrane potential loss in human HCT-116 cells assessed as JC-1 monomer level by measuring green fluorescence intensity at 1 uM incubated for 48 hrs by JC-1 staining based flow cytometry (reference value: 3.28%)", "type": "functional"}, "[17]": {"tested_on": "HCT-116", "assay": "Induction of apoptosis in human HCT-116 cells assessed as necrotic cells at 1.5 uM incubated for 48 hrs by AnnexinV-FITC/PI staining based flow cytometry (reference value: 0%)", "type": "functional"}, "[18]": {"tested_on": "HCT-116", "assay": "Induction of cell cycle arrest in human HCT-116 cells assessed as accumulation of cells at G0/G1 phase at 1.5 uM incubated for 72 hrs by PI staining based flow cytometry (reference value: 57.2%)", "type": "functional"}, "[19]": {"tested_on": "HCT-116", "assay": "Induction of cell cycle arrest in human HCT-116 cells assessed as accumulation of cells at G2/M phase at 1.5 uM incubated for 48 hrs by PI staining based flow cytometry (reference value: 24.7%)", "type": "functional"}, "[20]": {"tested_on": "HCT-116", "assay": "Induction of apoptosis in human HCT-116 cells assessed as late apoptotic cells at 7.5 uM incubated for 72 hrs by AnnexinV-FITC/PI staining based analysis (reference value: 0%)", "type": "functional"}, "[21]": {"tested_on": "HCT-116", "assay": "Induction of apoptosis in human HCT-116 cells assessed as early apoptotic cells at 1.5 uM incubated for 48 hrs by AnnexinV-FITC/PI staining based flow cytometry (reference value: 2.11%)", "type": "functional"}, "[22]": {"tested_on": "HCT-116", "assay": "Induction of DNA double-strand breaks in human HCT-116 cells assessed as gammaH2AX accumulation incubated for 48 hrs by western blot analysis", "type": "functional, cell-based", "settings": "dose 0.3-3 µM"}, "[23]": {"tested_on": "HCT-116", "assay": "Induction of cell cycle arrest in human HCT-116 cells assessed as accumulation of cells at G0/G1 phase at 7.5 uM incubated for 72 hrs by PI staining based flow cytometry (reference value: 57.2%)", "type": "functional"}, "[24]": {"tested_on": "HCT-116", "assay": "Induction of apoptosis in human HCT-116 cells assessed as increase in cleaved caspase-3 protein expression incubated for 48 hrs by western blot analysis", "type": "functional, cell-based", "settings": "dose 0.3-3 µM"}, "[25]": {"tested_on": "HCT-116", "assay": "Induction of apoptosis in human HCT-116 cells assessed as necrotic cells at 7.5 uM incubated for 72 hrs by AnnexinV-FITC/PI staining based analysis (reference value: 0%)", "type": "functional"}, "[26]": {"tested_on": "HCT-116", "assay": "Induction of apoptosis in human HCT-116 cells assessed as decrease in Bcl-2 protein expression incubated for 48 hrs by western blot analysis", "type": "functional, cell-based", "settings": "dose 0.3-3 µM"}, "[27]": {"tested_on": "HCT-116", "assay": "Induction of mitochondrial membrane potential loss in human HCT-116 cells assessed as increase in monomer JC-1 level by measuring green fluorescence intensity at 3 uM incubated for 48 hrs by immunofluorescence analysis", "type": "functional, cell-based"}, "[28]": {"tested_on": "HCT-116", "assay": "Induction of cell cycle arrest in human HCT-116 cells assessed as accumulation of cells at G0/G1 phase at 0.3 uM incubated for 48 hrs by PI staining based flow cytometry (reference value: 62.1%)", "type": "functional"}, "[29]": {"tested_on": "HCT-116", "assay": "Inhibition of cell migration in human HCT-116 cells at 0.3 uM incubated for 48 hrs by wound healing assay", "type": "functional"}, "[30]": {"tested_on": "HCT-116", "assay": "Induction of cell cycle arrest in human HCT-116 cells assessed as accumulation of cells at S phase at 1.5 uM incubated for 72 hrs by PI staining based flow cytometry (reference value: 16.7%)", "type": "functional"}, "[31]": {"tested_on": "HCT-116", "assay": "Induction of cell cycle arrest in human HCT-116 cells assessed as accumulation of cells at G0/G1 phase at 0.3 uM incubated for 72 hrs by PI staining based flow cytometry (reference value: 57.2%)", "type": "functional"}, "[32]": {"tested_on": "HCT-116", "assay": "Induction of cell cycle arrest in human HCT-116 cells assessed as accumulation of cells at S phase at 7.5 uM incubated for 48 hrs by PI staining based flow cytometry (reference value: 14.5%)", "type": "functional"}, "[33]": {"tested_on": "HCT-116", "assay": "Induction of cell cycle arrest in human HCT-116 cells assessed as accumulation of cells at G2/M phase at 0.3 uM incubated for 72 hrs by PI staining based flow cytometry (reference value: 25.4%)", "type": "functional"}, "[34]": {"tested_on": "HCT-116", "assay": "Induction of apoptosis in human HCT-116 cells assessed as early apoptotic cells at 1.5 uM incubated for 72 hrs by AnnexinV-FITC/PI staining based analysis (reference value: 1.05%)", "type": "functional"}}, "note": "Active and inactive are the calls of the source. The rule behind the calls is not given here."}
{"smiles": "NC(=O)c1ccccc1OCc1cccc(NC(=O)c2ccc(Br)cc2)c1", "values": [{"measurement": "Activity", "setting": "[1]", "value": 90.62, "unit": "%"}, {"measurement": "Activity", "setting": "[2]", "value": "Active"}, {"measurement": "Activity", "setting": "[3]", "value": 22.4, "unit": "%"}, {"measurement": "inhibition at 1 µM", "setting": "[4]", "value": 36.3, "unit": "%"}, {"measurement": "inhibition at 1 µM", "setting": "[5]", "value": 18, "unit": "%"}, {"measurement": "Activity", "setting": "[6]", "value": 0.51, "unit": "%"}, {"measurement": "Activity", "setting": "[7]", "value": 9.38, "unit": "%"}, {"measurement": "viability at 1.5 µM", "setting": "[8]", "value": 73, "unit": "%"}, {"measurement": "Activity", "setting": "[9]", "value": 12.5, "unit": "%"}, {"measurement": "Activity", "setting": "[10]", "value": 50.03, "unit": "%"}, {"measurement": "Activity", "setting": "[11]", "value": 0.01, "unit": "%"}, {"measurement": "IC50", "setting": "[12]", "value": 0.25, "unit": "nM"}, {"measurement": "selectivity ratio", "setting": "[13]", "value": 1640}, {"measurement": "inhibition at 3 µM", "setting": "[14]", "value": 22.3, "unit": "%"}, {"measurement": "IC50", "setting": "[15]", "value": 2.34, "unit": "nM"}, {"measurement": "Activity", "setting": "[16]", "value": 14.16, "unit": "%"}, {"measurement": "Activity", "setting": "[17]", "value": 1.38, "unit": "%"}, {"measurement": "Activity", "setting": "[18]", "value": 45.1, "unit": "%"}, {"measurement": "Activity", "setting": "[19]", "value": 33, "unit": "%"}, {"measurement": "Activity", "setting": "[20]", "value": 0.05, "unit": "%"}, {"measurement": "Activity", "setting": "[21]", "value": 22.69, "unit": "%"}, {"measurement": "Activity", "setting": "[22]", "value": "Dose-Dependent Effect"}, {"measurement": "Activity", "setting": "[23]", "value": 34.4, "unit": "%"}, {"measurement": "Activity", "setting": "[24]", "value": "Dose-Dependent Effect"}, {"measurement": "Activity", "setting": "[25]", "value": 0.01, "unit": "%"}, {"measurement": "Activity", "setting": "[26]", "value": "Dose-Dependent Effect"}, {"measurement": "Activity", "setting": "[27]", "value": "Active"}, {"measurement": "Activity", "setting": "[28]", "value": 60.7, "unit": "%"}, {"measurement": "inhibition at 0.3 µM", "setting": "[29]", "value": 30.5, "unit": "%"}, {"measurement": "Activity", "setting": "[30]", "value": 15.6, "unit": "%"}, {"measurement": "Activity", "setting": "[31]", "value": 46.9, "unit": "%"}, {"measurement": "Activity", "setting": "[32]", "value": 10.4, "unit": "%"}, {"measurement": "Activity", "setting": "[33]", "value": 29.6, "unit": "%"}, {"measurement": "Activity", "setting": "[34]", "value": 30.42, "unit": "%"}]}
